The source of these data is US6515001B2, “IL-8 receptor ligands-drugs for inflammatory and autoimmune diseases” (Chemokine Therapeutic Corporation, priority 2001, dated 2003).

Structures are written as SMILES.

The target in assay [1] is IL-8 receptors (CXCR-1 and CXCR-2). Put plainly: Inhibition of binding of I125 labeled IL-8 to IL-8 receptors. The following applies: I125 labeled IL-8 as competitor; read-out: IC50, inhibition of binding of IL-8 to CXCR-1 and/or CXCR-2. As for the experimental part:
This example discloses the ability of compounds of the invention, such as benzopyrone derivatives, such as CTCM192 (1), to inhibit binding of IL-8 to IL-8 receptors (CXCR-1 and CXCR-2). The binding studies were conducted using I^125 labeled IL-8 as competitor.

The subject of assay [2] is IL-8-induced [Ca2+]i mobilization in THP1 cells. Kind of assay: Inhibition of IL-8-induced intracellular [Ca2+]i mobilization in THP1 cells. In kind it is cell-based. The note with it: Homo sapiens, THP-1; Fura-2,AM loaded THP1 cells, incubated 60 min prior to induction by 12 nM IL-8. The procedure:
A rapid, transient rise in the free cytosolic Ca^2+ concentration ([Ca^2+])i) is one of the events associated with the Chemokine mediated induction of the associated receptors and is assumed to be involved in many of the subsequent cellular reactions. Both Ca^2+ release from intracellular stores and Ca^2+ influx from the extracellular space contribute to the rise in [Ca^2+]i. […] Fura-2,AM loaded THP1 cells were incubated with CTCM192 for 60 min prior to induction of [Ca^2+]i mobilization by 12 nM IL-8. Results illustrate the effect of CTCM192 (1) on IL-8-induced Ca^2+ mobilization.
In accordance with this aspect of the invention, the benzopyrone derivative, Geetokine, such as compound 1 or corresponding salts may be used for the treatment of a wide range of inflammatory diseases such as gout, arthritis osteoarthritis, rheumatoid arthritis, and ARDS.

On to `Cc1csc(-c2coc3cc(OC(=O)C(Cc4ccccc4)NC(=O)OCc4ccccc4)cc(C)c3c2=O)n1` (centres unmarked) [Compound 1, [7-[5-methylbenzopyrone-5′(3′-methyl)-thiazole]-phenylalanine-benyl ester]], for which the results for the IC50 in assay [1] and in assay [2] were 45 µM and 0.34 µM, respectively.
